# Test results taken from the supplement of paper PMC12490022.
# ± gives the uncertainty stated by the source.
# Tested on: ozone
# Assay: apparent second-order rate constant for reaction with ozone (kapp,O3) (M-1 s-1); higher = faster oxidation by ozone
# Conditions: pH 7; temperature: 22 C; OH radical scavenger: tBuOH 80 mM; phosphate 4 mM
# Protocol: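 Apparent second-order rate constants for reaction with ozone at pH 7 were determined by multicompound competition kinetics. Mixtures of targets and competitors (10 ug/L each) were ozonated in 4 mM phosphate buffer, pH 7, with 80 mM tBuOH as OH-radical scavenger, at 22 ± 1 °C. Peak-area abatement was measured by HPLC-HRMS/MS and k was derived from ln-ln slopes against competitors with known k (R2 > 0.9, >= 10 points, slope 0.1-10). Experiments were run in triplicate on 3 days; the value is the mean over valid competitors ± SD.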
row,apparent second-order rate constant,Structure (SMILES)
1,2950 ± 260,CC(C)(C(=O)O)c1ccc(C(O)CCCN2CCC(C(O)(c3ccccc3)c3ccccc3)CC2)cc1 (stereo unspecified) [Fexofenadine]
2,2.7 ± 0.3,CN(C=O)CCC(Oc1ccc(C(F)(F)F)cc1)c1ccccc1 (stereo unspecified) [Fluoxetine formamide]
3,1720 ± 50,CNCCC(Oc1ccc(C(F)(F)F)cc1)c1ccccc1 (stereo unspecified) [Fluoxetine]
4,390 ± 30,Nc1ccn(C2OC(CO)C(O)C2(F)F)c(=O)n1 (stereo unspecified) [Gemcitabine]
5,3.3e+07 ± 7e+06,COc1ccc(C2CC(=O)c3c(O)cc(O)cc3O2)cc1O (stereo unspecified) [Hesperitin]
6,3000 ± 300,NS(=O)(=O)c1cc2c(cc1Cl)NCNS2(=O)=O [Hydrochlorothiazide]
7,420 ± 25,CC12CCC(=O)C=C1CCC1C2C(O)CC2(C)C1CCC2(O)C(=O)CO (stereo unspecified) [Hydrocortisone]
8,850 ± 70,CC(C)NC(=O)NS(=O)(=O)c1cnccc1Nc1cccc(CO)c1 [Hydroxytorasemide]
9,7.6e+07 ± 1.7e+07,C1=Cc2ccccc2Nc2ccccc21 [Iminostilbene]
10,5.15e+06 ± 670000,COc1ccc2c(c1)c(CC(=O)O)c(C)n2C(=O)c1ccc(Cl)cc1 [Indomethacin]
11,2.14 ± 0.23,COCC(=O)Nc1c(I)c(C(=O)NCC(O)CO)c(I)c(C(=O)N(C)CC(O)CO)c1I (stereo unspecified) [Iopromide]
12,0.529 ± 0.016,CC(C(=O)O)c1cccc(C(=O)c2ccccc2)c1 (stereo unspecified) [Ketoprofen]
13,61000 ± 14000,Nc1ccn([C@@H]2CS[C@H](CO)O2)c(=O)n1 [Lamivudine]
14,371 ± 20,Nc1nc(N)[n+]([C@@H]2O[C@H](C(=O)O)[C@@H](O)[C@H](O)[C@H]2O)nc1-c1cccc(Cl)c1Cl [Lamotrigine-N2-glucuronide]
15,17.1 ± 1.2,Nc1nnc(-c2cccc(Cl)c2Cl)c(N)n1 [Lamotrigine]
16,0.66 ± 0.08,CCC(C(=O)O)N1CCCC1=O (stereo unspecified) [Levetiracetam acid]
17,10.9 ± 1.2,NC(=O)N1c2ccccc2CC(O)c2ccccc21 (stereo unspecified) [Licarbazepine]
18,17000 ± 1700,CCNCC(=O)Nc1c(C)cccc1C [Lidocaine-N-desethyl]
19,10.9 ± 1.2,CC[N+]([O-])(CC)CC(=O)Nc1c(C)cccc1C [Lidocaine-N-oxide]
20,185000 ± 17000,CCN(CC)CC(=O)Nc1c(C)cccc1C [Lidocaine]
21,198000 ± 16000,CCCCc1nc(Cl)c(CO)n1Cc1ccc(-c2ccccc2-c2nn[nH]n2)cc1 [Losartan]

row,apparent second-order rate constant,Structure (SMILES)
1,1.12e+06 ± 80000,Cc1cccc(Nc2ccccc2C(=O)O)c1C [Mefenamic acid]
2,87 ± 4.5,CC1CC2C(C(O)CC3(C)C2CCC3(O)C(=O)CO)C2(C)C=CC(=O)C=C12 (stereo unspecified) [Methylprednisolone]
3,295000 ± 26000,C[N+]1([O-])CCN2c3ccccc3Cc3ccccc3C2C1 (stereo unspecified) [Mianserin-N-oxide]
4,1.94e+06 ± 100000,CN1CCN2c3ccccc3Cc3ccccc3C2C1 (stereo unspecified) [Mianserin]
5,957000 ± 81000,CN1CCN2c3ncccc3Cc3ccccc3C2C1 (stereo unspecified) [Mirtazapine]
6,7.2e+07 ± 1.5e+07,COc1c(C)c2c(c(O)c1CC=C(C)CCC(=O)O)C(=O)OC2 [Mycophenolic acid]
7,89 ± 4.9,CC(=O)Nc1ccc(S(=O)(=O)Nc2ncccn2)cc1 [N4-Acetylsulfadiazine]
8,337000 ± 28000,COc1cc(OC)nc(NS(=O)(=O)c2ccc(NC(C)=O)cc2)n1 [N4-Acetylsulfadimethoxine]
9,815 ± 43,CC(=O)Nc1ccc(S(=O)(=O)Nc2nc(C)cc(C)n2)cc1 [N4-Acetylsulfamethazine]
10,947 ± 280,CC(=O)Nc1ccc(S(=O)(=O)Nc2ccccn2)cc1 [N4-Acetylsulfapyridine]
11,1.02e+07 ± 1.2e+06,CC(=O)Nc1ccc(S(=O)(=O)Nc2nccs2)cc1 [N4-Acetylsulfathiazole]
12,1.99e+06 ± 120000,"CNCC(c1ccc(O)cc1)C1(O)CCCCC1 (stereo unspecified) [N,O-Didesmethylvenlafaxine]"
13,10300 ± 980,CCC1OC(=O)C(C)C(OC2CC(C)(OC)C(O)C(C)O2)C(C)C(OC2OC(C)CC(NC)C2O)C(C)(O)CC(C)CN(C)C(C)C(O)C1(C)O (stereo unspecified) [N-Desmethylazithromycin]
14,532 ± 28,CNCCCC1(c2ccc(F)cc2)OCc2cc(C#N)ccc21 (stereo unspecified) [N-Desmethylcitalopram]
15,6500 ± 520,CCC1OC(=O)C(C)C(OC2CC(C)(OC)C(O)C(C)O2)C(C)C(OC2OC(C)CC(NC)C2O)C(C)(OC)CC(C)C(=O)C(C)C(O)C1(C)O (stereo unspecified) [N-Desmethylclarithromycin]
16,975 ± 49,CNCCC(c1ccccc1)c1ccccn1 (stereo unspecified) [N-Desmethylpheniramine]
17,26000 ± 2800,CC(C)c1nc(NS(C)(=O)=O)nc(-c2ccc(F)cc2)c1C=CC(O)CC(O)CC(=O)O (stereo unspecified) [N-Desmethylrosuvastatin]
18,993 ± 55,CNCC(c1ccc(OC)cc1)C1(O)CCCCC1 (stereo unspecified) [N-Desmethylvenlafaxine]
19,34.3 ± 2.1,N#Cc1ccc2c(c1)COC2(CCCN)c1ccc(F)cc1 (stereo unspecified) [N-Didesmethylcitalopram]
20,278000 ± 25000,COC(=O)C(C)c1ccc2cc(OC)ccc2c1 (stereo unspecified) [Naproxen methyl ester]
21,500000 ± 46000,COc1ccc2cc(C(C)C(=O)O)ccc2c1 (stereo unspecified) [Naproxen]

row,apparent second-order rate constant,Structure (SMILES)
1,86 ± 9,Cc1ccnc2c1NC(=O)c1cccnc1N2C1CC1 [Nevirapine]
2,332000 ± 30000,CN1CCCC1c1cccnc1 (stereo unspecified) [Nicotine]
3,42 ± 2.5,NCCC(Oc1ccc(C(F)(F)F)cc1)c1ccccc1 (stereo unspecified) [Norfluoxetine]
4,0.401 ± 0.014,CCOC(=O)c1c(COCC(=O)O)nc(C)c(C(=O)OC)c1-c1ccccc1Cl [O-Des[2-aminoethyl]-O-carboxymethyl-dehydroamlodipine]
5,570000 ± 48000,Cc1cccc(C)c1NC(=O)CN1CCN(CC(O)CO)CC1 (stereo unspecified) [O-Desarylranolazine]
6,6.6e+06 ± 500000,CC(C(=O)O)c1ccc2cc(O)ccc2c1 (stereo unspecified) [O-Desmethylnaproxen]
7,2.09e+06 ± 170000,CN(C)CC(c1ccc(O)cc1)C1(O)CCCCC1 (stereo unspecified) [O-Desmethylvenlafaxine]
8,87000 ± 7700,CCC(CC)OC1C=C(C(=O)O)CC(N)C1NC(C)=O (stereo unspecified) [Oseltamivir acid]
9,6130 ± 510,CCOC(=O)C1=CC(OC(CC)CC)C(NC(C)=O)C(N)C1 (stereo unspecified) [Oseltamivir]
10,4 ± 2.5,O=c1nc2[nH][nH]cc-2c(=O)[nH]1 [Oxypurinol]
11,108 ± 5.6,COc1ccnc(CS(=O)c2nc3ccc(OC(F)F)cc3[nH]2)c1OC (stereo unspecified) [Pantoprazole]
12,1.1e+07 ± 2.4e+06,CC(=O)Nc1ccc(O)c(SCC(NC(=O)CCC(N)C(=O)O)C(=O)NCC(=O)O)c1 (stereo unspecified) [Paracetamol-glutathione]
13,3.3 ± 0.3,CC(=O)Nc1ccc(OS(=O)(=O)O)cc1 [Paracetamol-sulfate]
14,2.4e+06 ± 180000,CC(=O)Nc1ccc(O)cc1 [Paracetamol]
15,68 ± 8,C#CC[N+](C)([O-])Cc1ccccc1 (stereo unspecified) [Pargyline-N-oxide]
16,2.4 ± 0.3,C[N+](C)([O-])CCC(c1ccccc1)c1ccccn1 (stereo unspecified) [Pheniramine-N-oxide]
17,17600 ± 1700,CN(C)CCC(c1ccccc1)c1ccccn1 (stereo unspecified) [Pheniramine]
18,2890 ± 220,CNCC(O)c1cccc(OS(=O)(=O)O)c1 (stereo unspecified) [Phenylephrine-3-O-sulfate]
19,158000 ± 7000,CNCC(O)c1cccc(O)c1 (stereo unspecified) [Phenylephrine]

row,Structure (SMILES),apparent second-order rate constant
1,O=C1CC2(CCCCC2)CN1 [Gabapentin-lactam],1.51 ± 0.16
2,NCC1(CC(=O)O)CCCCC1 [Gabapentin],11.4 ± 1.2
3,CC(NC(C)(C)CO)C(=O)c1cccc(Cl)c1 (stereo unspecified) [Hydroxybupropion],3630 ± 310
4,CNC1(c2ccccc2Cl)CCCCC1=O (stereo unspecified) [Ketamine],10400 ± 1000
5,CCC(C(N)=O)N1CCCC1=O (stereo unspecified) [Levetiracetam],0.81 ± 0.09
6,CCC(=O)C(CC(C)N(C)C)(c1ccccc1)c1ccccc1 (stereo unspecified) [Methadone],4250 ± 360
7,COC(=O)C(c1ccccc1)C1CCCCN1 (stereo unspecified) [Methylphenidate],4300 ± 360
8,CN1CCC23c4c5ccc(O)c4OC2C(O)C=CC3C1C5 (stereo unspecified) [Morphine],3.8e+07 ± 8e+06
9,CNCC(CC(=O)O)CC(C)C (stereo unspecified) [N-Methylpregabalin],143 ± 7.6
10,COc1ccc2c3c1OC1C(O)C=CC4C(C2)NCCC341 (stereo unspecified) [Norcodeine],2.68e+06 ± 51000
11,C#CCNC(C)Cc1ccccc1 (stereo unspecified) [Nordeprenyl],14000 ± 1200
12,CC(N)C(O)c1ccccc1 (stereo unspecified) [Norephedrine],45.5 ± 2.3
13,NC1(c2ccccc2Cl)CCCCC1=O (stereo unspecified) [Norketamine],37.5 ± 2.5
14,c1ccc2c(c1)Cc1ccccc1N1CCNCC21 (stereo unspecified) [Normianserin],570000 ± 48000
15,c1cncc(C2CCCN2)c1 (stereo unspecified) [Nornicotine],6350 ± 520
